Results published in patent US11453697B1, “Cyclic di-nucleotide compounds as sting agonists” (Merck Sharp & Dohme Corp., priority 2015, dated 2022).

target: full-length HAQ STING (Homo sapiens (Human), UniProt Q86WV6, G230A/H232R/R293Q/R71H); experiment: 3H-cGAMP filtration binding assay (HAQ STING); conditions: competition with tritiated cGAMP, HAQ STING membrane; read-out: EC50 (nM), 3H-cGAMP filtration binding assay for HAQ STING
Description: The ability of compounds to bind STING is quantified by the ability to compete with tritiated cGAMP ligand for human STING receptor membrane using a radioactive filter-binding assay. The binding assay employs STING receptor obtained from Hi-Five cell membranes overexpressing full-length HAQ STING prepared in-house and tritiated cGAMP ligand also purified in-house.
The ability of compounds to bind STING is quantified by their ability to compete with tritiated cGAMP ligand for human STING receptor membrane using a radioactive filter-binding assay.
The basic HAQ STING filtration assay protocol is as follows:
Compound and membrane then preincubated for 60 min at RT to allow compound binding to equilibrate. Following equilibration, 8 nM of [^3H] c-GAMP ligand was prepared by diluting into assay buffer, and 50 uL of this working stock was then manually added to each well of the assay plate. […] The filter plates were then dried at 55° C. for 30 min using a pressurized VWR oven before 30 uL of Ultima GoldF scintillate was added to each well. Tritium levels for each reaction well were then measured using a PerkinElmer TopCount plate reader.
After normalization to controls, the percent activity for each compound concentration was calculated by measuring the amount of remaining radioactivity. The plot of percent activity versus the log of compound concentration was fit with a 4-parameter dose response equation to calculate EC50 values.

full-length HAQ STING, sequence (Q86WV6 other isoform, or with tags, fused parts or gaps, stated change not applied): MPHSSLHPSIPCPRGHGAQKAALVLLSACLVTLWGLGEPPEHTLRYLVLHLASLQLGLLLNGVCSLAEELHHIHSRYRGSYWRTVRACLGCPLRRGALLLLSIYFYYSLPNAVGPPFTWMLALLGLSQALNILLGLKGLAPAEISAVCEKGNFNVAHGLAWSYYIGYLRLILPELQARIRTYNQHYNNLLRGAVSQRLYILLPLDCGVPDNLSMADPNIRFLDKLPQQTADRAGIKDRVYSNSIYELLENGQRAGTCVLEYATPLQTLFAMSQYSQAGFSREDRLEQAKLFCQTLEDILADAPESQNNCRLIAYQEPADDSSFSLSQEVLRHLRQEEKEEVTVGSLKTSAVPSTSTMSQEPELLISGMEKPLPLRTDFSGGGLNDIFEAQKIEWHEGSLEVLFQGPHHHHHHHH

Compared with `Nc1nc2c(ncn2[C@@H]2O[C@@H]3COP(=O)(S)O[C@H]4[C@@H](O)[C@H](n5ccc6c(N)ncnc65)O[C@@H]4COP(=O)(S)O[C@@H]2C3)c(=O)[nH]1` (single isomer, unassigned) [Example 78], `Nc1nc2c(ncn2[C@@H]2O[C@@H]3COP(=O)(S)OC4[C@@H](COP(=O)(S)O[C@H]2C3)O[C@@H](n2cnc3c(N)ncnc32)[C@H]4F)c(=O)[nH]1` (single isomer, unassigned) [Example 132] is 1.8-fold higher in EC50: 14.6 nM for the first, 25.9 nM for the second. The first is the more potent here.

Compared with `Nc1nc2c(ncn2[C@@H]2O[C@@H]3COP(=O)(S)O[C@H]4[C@@H](O)[C@H](n5ccc6c(N)ncnc65)O[C@@H]4COP(=O)(S)O[C@@H]2C3)c(=O)[nH]1` (single isomer, unassigned) [Example 79], `Nc1nc2c(ncn2[C@@H]2O[C@@H]3CO[P@@](O)(=S)O[C@H]4[C@H](F)[C@H](n5cnc6c(N)ncnc65)O[C@@H]4CO[P@@](O)(=S)O[C@@H]2C3)c(=O)[nH]1` [Example 130, 2-amino-9-[(2R,5S,7R,8R,10R,12aR,14R,15S,15aR)-14-(6-amino-9H-purin-9-yl)-15-fluoro-2,10-dihydroxy-2,10-disulfidooctahydro-12H-5,8-methanofuro[3,2-l][1,3,6,9,11,2,10]pentaoxadiphosphacyclotetradecin-7-yl]-1,9-dihydro-6H-purin-6-one] is lower in EC50: 103 nM for the first, under 1 nM for the second. The second is the more potent here.

First: Nc1nc2c(ncn2[C@@H]2O[C@@H]3COP(=O)(S)O[C@H]4[C@@H](O)[C@H](n5ccc6c(N)ncnc65)O[C@@H]4COP(=O)(S)O[C@@H]2C3)c(=O)[nH]1 (single isomer, unassigned) [Example 80]
Second: Nc1nc2c(nnn2[C@@H]2O[C@@H]3COP(=O)(O)O[C@H]4[C@@H](O)[C@H](n5cnc6c(N)ncnc65)O[C@@H]4COP(=O)(O)O[C@@H]2[C@@H]3O)c(=O)[nH]1 [Example 69, 5-amino-3-[(5R,7R,8R,12aR,14R,15R,15aS,16R)-14-(6-amino-9H-purin-9-yl)-2,10,15,16-tetrahydroxy-2,10-dioxidooctahydro-12H-5,8-methanofuro[3,2-l][1,3,6,9,11,2,10]pentaoxadiphosphacyclotetradecin-7-yl]-3,6-dihydro-7H-[1,2,3]triazolo[4,5-d]pyrimidin-7-one]
The EC50 of the first is higher: 1.3 nM for the first, under 1 nM for the second.

system: IFN-β secretion in THP1 cells; experiment: IFN-β secretion in THP1 cell culture (5 h); assay type: cell-based, human; conditions: not given
Experimental: The ability of compounds to stimulate the secretion of interferon-beta from THP1 cells was measured using a human IFN-β AlphaLISA kit (Perkin Elmer, Cat. No. AL265F). The basic protocol is as follows:
The cell viability and count was ascertained using a Beckman Coulter V-Cell XR cell counter. The cells suspension was centrifuged at 200×g for 5 min at RT. […] Subsequent liquid transfers were performed using either a Matrix electronic multichannel pipette or an Agilent Bravo Automated Liquid Handling Platform.
The assay was started by dispensing 40 μL of the previously prepared cell suspension into the wells of the plate containing compounds. After 5 h incubation at 37° C., 5% CO2 in a humidified atmosphere, the plate of cells and compounds was centrifuged at 200×g for 5 min at RT. […] To these supernatant-containing wells was added 10 μL of 5× Anti-Analyte Acceptor beads (50 μg/mL of AlphaLISA HiBlock Buffer) and incubated for 30 min at RT while shaking on an orbital plate shaker. To each well was added 10 μL of 5× Biotinylated Antibody Anti-analyte (5 nM in AlphaLISA HiBlock Buffer) and incubated on an orbital plate shaker for 60 min at RT or overnight at 4° C. To each well was added 25 μL of 2× SA-Donor beads (80 μg/mL in AlphaLISA HiBlock Buffer) and incubated for 30-45 min at RT in the dark while shaking on an orbital plate shaker. The plate was then read on a Perkin Elmer Envision (λex=680 nm, λem=[…]). The percent effect of the AlphaLISA signal at each compound concentration was calculated based on 30 uM cGAMP positive controls and 0.3% DMSO negative controls. The plot of percent effect versus the log of compound concentration was fit with a 4-parameter concentration response equation to calculate EC50 values.
Compounds of the disclosure were evaluated for IFN-β secretion in THP1 cell culture as described above.

With `Nc1nc2c(ncn2[C@@H]2O[C@@H]3COP(=O)(O)O[C@H]4[C@@H](O)[C@H](n5cnc6c(N)ncnc65)O[C@@H]4COP(=O)(O)O[C@@H]2[C@H]3F)c(=O)[nH]1` [Example 52, 2-amino-9-[(5R,7R,8S,12aR,14R,15R,15aS,16S)-14-(6-amino-9H-purin-9-yl)-16-fluoro-2,10,15-trihydroxy-2,10-dioxidooctahydro-12H-5,8-methanofuro[3,2-l][1,3,6,9,11,2,10]pentaoxadiphosphacyclotetradecin-7-yl]-1,9-dihydro-6H-purin-6-one] the “% Effect at 30 μM relative to 2′3′-cGAMP” value was 143%.

same assay, conditions: IFN-β secretion in THP1 cell culture, 5 h; compound at 30 μM; percent activation relative to 2′3′-cGAMP

Going from `Nc1nc2c(ncn2[C@@H]2O[C@@H]3COP(=O)(S)O[C@H]4[C@@H](O)[C@H](n5ccc6c(N)ncnc65)O[C@@H]4COP(=O)(S)O[C@@H]2C3)c(=O)[nH]1` (stereo partly drawn) [Example 78, 2-amino-9-[(5S,7R,8R,12aR,14R,15R,15aS)-14-(4-amino-7H-pyrrolo[2,3-d]pyrimidin-7-yl)-15-hydroxy-2,10-dioxido-2,10-disulfanyloctahydro-12H-5,8-methanofuro[3,2-l][1,3,6,9,11,2,10]pentaoxadiphosphacyclotetradecin-7-yl]-1,9-dihydro-6H-purin-6-one] to `Nc1nc2c(ncn2[C@@H]2O[C@@H]3COP(=O)(S)OC4[C@@H](COP(=O)(S)O[C@H]2C3)O[C@@H](n2nnc3c(N)ncnc32)[C@H]4F)c(=O)[nH]1` (stereo partly drawn) [Example 133, 2-amino-9-[(5S,7R,8R,12aR,14R,15S,15aR)-14-(7-amino-3H-[1,2,3]triazolo[4,5-d]pyrimidin-3-yl)-15-fluoro-2,10-dihydroxy-2,10-disulfidooctahydro-12H-5,8-methanofuro[3,2-l][1,3,6,9,11,2,10]pentaoxadiphosphacyclotetra-decin-7-yl]-1,9-dihydro-6H-purin-6-one], the “% Effect at 30 μM relative to 2′3′-cGAMP” value falls from 162% to 117%.

Going from `Nc1nc2c(ncn2[C@@H]2O[C@@H]3COP(=O)(S)O[C@H]4[C@@H](O)[C@H](n5ccc6c(N)ncnc65)O[C@@H]4COP(=O)(S)O[C@@H]2C3)c(=O)[nH]1` (stereo partly drawn) [Example 79, 2-amino-9-[(5S,7R,8R,12aR,14R,15R,15aS)-14-(4-amino-7H-pyrrolo[2,3-d]pyrimidin-7-yl)-15-hydroxy-2,10-dioxido-2,10-disulfanyloctahydro-12H-5,8-methanofuro[3,2-l][1,3,6,9,11,2,10]pentaoxadiphosphacyclotetradecin-7-yl]-1,9-dihydro-6H-purin-6-one] to `Nc1nc2c(ncn2[C@@H]2O[C@@H]3COP(=O)(S)O[C@H]4[C@H](F)[C@H](n5cnc6c(N)ncnc65)O[C@@H]4COP(=O)(O)O[C@@H]2[C@@H]3F)c(=O)[nH]1` (stereo partly drawn) [Example 143, 2-amino-9-[(5R,7R,8S,12aR,14R,15S,15aR,16R)-14-(6-amino-9H-purin-9-yl)-15,16-difluoro-2,10-dihydroxy-10-oxido-2-sulfidooctahydro-12H-5,8-methanofuro[3,2-l][1,3,6,9,11,2,10]pentaoxadiphosphacyclotetra-decin-7-yl]-1,9-dihydro-6H-purin-6-one], the “% Effect at 30 μM relative to 2′3′-cGAMP” value rises from 145% to 157%.

Going from `Nc1nc2c(ncn2[C@@H]2O[C@@H]3COP(=O)(S)O[C@H]4[C@@H](O)[C@H](n5ccc6c(N)ncnc65)O[C@@H]4COP(=O)(S)O[C@@H]2C3)c(=O)[nH]1` (stereo partly drawn) [Example 80, 2-amino-9-[(5S,7R,8R,12aR,14R,15R,15aS)-14-(4-amino-7H-pyrrolo[2,3-d]pyrimidin-7-yl)-15-hydroxy-2,10-dioxido-2,10-disulfanyloctahydro-12H-5,8-methanofuro[3,2-l][1,3,6,9,11,2,10]pentaoxadiphosphacyclotetradecin-7-yl]-1,9-dihydro-6H-purin-6-one] to `Nc1nc2c(ncn2[C@@H]2S[C@@H]3COP(=O)(O)O[C@H]4[C@H](F)[C@H](n5cnc6c(=O)[nH]cnc65)O[C@@H]4COP(=O)(S)O[C@@H]2[C@@H]3O)c(=O)[nH]1` (stereo partly drawn) [Example 339, 2-amino-9-[(5R,7R,8R,12aR,14R,15S,15aR,16S)-15-fluoro-2,16-dihydroxy-2,10-dioxido-14-(6-oxo-1,6-dihydro-9H-purin-9-yl)-10-sulfanyloctahydro-12H-5,8-methanofuro[3,2-l][1,3,9,11,6,2,10]tetraoxathiadiphosphacyclotetradecin-7-yl]-1,9-dihydro-6H-purin-6-one], the “% Effect at 30 μM relative to 2′3′-cGAMP” value falls from 234% to 175%.

Going from `Nc1nc2c(ncn2[C@@H]2O[C@@H]3COP(O)(=S)O[C@H]4[C@@H](F)[C@H](n5cnc6c(N)ncnc65)O[C@@H]4COP(O)(=S)O[C@@H]2[C@@H]3F)c(=O)[nH]1` (stereo partly drawn) [Example 260, 2-amino-9-[(5R,7R,8S,12aR,14R,15R,15aR,16R)-14-(6-amino-9H-purin-9-yl)-15,16-difluoro-2,10-dihydroxy-2,10-disulfidooctahydro-12H-5,8-methanofuro[3,2-l][1,3,6,9,11,2,10]pentaoxadiphosphacyclotetradecin-7-yl]-1,9-dihydro-6H-purin-6-one] to `Nc1nc2c(nnn2[C@@H]2O[C@@H]3COP(=O)(S)O[C@H]4[C@H](F)[C@H](n5cnc6c(=O)[nH]cnc65)O[C@@H]4COP(=O)(S)O[C@@H]2[C@H]3F)c(=O)[nH]1` (stereo partly drawn) [Example 348, 5-amino-3-[(5R,7R,8S,12aR,14R,15S,15aR,16S)-15,16-difluoro-2,10-dioxido-14-(6-oxo-1,6-dihydro-9H-purin-9-yl)-2,10-disulfanyloctahydro-12H-5,8-methanofuro[3,2-l][1,3,6,9,11,2,10]pentaoxadiphosphacyclotetradecin-7-yl]-3,6-dihydro-7H-[1,2,3]triazolo[4,5-d]pyrimidin-7-one], the “% Effect at 30 μM relative to 2′3′-cGAMP” value falls from 113% to 8%.
